The source of these data is patent publication US20230293591A1, “Therapeutic Substances, their Preparation and Diagnostic Procedure” (KING'S COLLEGE LONDON, priority 2017, published 2023).

Where a SMILES comes first, the peptide text is derived from it. The star is where a group is joined. Cbz = O=C(OCc1ccccc1)*; CH2F = FC*

Experiment [1] relates to GvHD effector cells (CD8+Vβ8.3+). Nature of the experiment: Mouse GvHD model: infiltration of GvHD effector cells in spleen and lungs by flow-cytometry. The format is in vivo. To be noted: GvHD mice, IDO inhibitor 2 mg/ml in drinking water from 6 days prior to MSC injection. The text has this: Acute GvHD was induced as previously described (T. Toubai et al. Blood, 119, 3844-3853 (2012)). Briefly, after lethal irradiation (11 Gy), recipient C57BL/6 male mice were transplanted with 1×10^6 purified CD8+ cells transgenic for a T-cell receptor specific for the male HY-antigen Uty (Matahari, Mh) from female Mh mice as GvHD effectors (FIG. 9A), 5×10^6 unfractionated bone marrow (BM) and 2×10^6 purified polyclonal CD4+ cells from female syngeneic donors (C57BL/6 wild-type donors). The control group received BM and purified CD4+ cells only. CD4+ and CD8+ T cells were obtained by positive selection using magnetic beads (Miltenyi Biotec Ltd, Bisley, UK). Live MSC (1×10^6) were injected i.v. at day +3, whilst apoMSC (1×10^6) were administered i.v. or i.p. at day +1, +3 and +6 from the transplant. Unless otherwise specified, animals were euthanized for analysis at day +7. The infiltration of GvHD effector cells was assessed by flow-cytometry and the percentage was expressed as proportion of cells in the lymphocyte gate, based on the physical characteristics of the cells.
In this model, the expansion of the T cells effecting GvHD (CD8+Vβ8.3+) can be precisely enumerated.

Another experiment deals with caspase 3. Description: Caspase 3 activation in MSC cultured with activated PBMC (FRET-MSC). The format is cell-based, human. Here is the method: Luc-MSC were transfected with the pGL3-Control vector containing the SV40 promoter for the expression of Luc+ (Promega, Southampton, UK) or with pECFPDEVDR-Venus (Addgene, Teddington, UK) using electroporation (Gene Pulser Xcell, BioRad, Kidlington, UK). Cells were suspended in a total volume of 250 μl of buffer and electroporated in 0.4 cm gap cuvettes using 10 μg of DNA at 250 volts and […]. When pECFP-DEVDR-Venus was used, the donor fluorophore pECFP and the acceptor Venus-YFP were linked through the flexible linker DEVDR which is recognized and cleaved by the active form of caspase 3. In this system caspase 3 activity can be monitored through the analysis of the Förster Resonance Energy Transfer (FRET) between pECFP and Venus-YFP. […]
The following antibodies specific for murine molecules were used: anti-CD45 (FITC, Clone 30-F11) (eBiosciences Ltd, Hatfield, UK), anti-Vβ8.3 (FITC, Clone 1B3.3), antiCD8 (APC, Clone 53-6.7), antiCD4 (PE, Clone H129.19), anti-CD19 (APC-H7, Clone 1D3), anti-NK1.1 (PerCP-Cy5.5, Clone PK136) (BD Biosciences, Oxford, UK), anti-CD11b (PerCP-Cy5.5, clone M1/70), anti-CD11c (APC-Cy7, clone n418), anti-Ido1 (Alexa Fluo647, clone 2e2) (BioLegend, London, UK). […] All samples were acquired using BD FACS Canto II using the software FACS Diva and analyzed with Flow-jo software. […]

Another experiment concerns PGE2. Nature of the experiment: PGE2 ELISA in supernatant of MSC co-cultured with IBD patients' PBMC. The format is cell-based, human. The following applies: MSC (5×10^4) and patients PBMC (1×10^6), 24 hours, inhibitor 50 μM. As to the method:
In particular MSC (5×10^4) and patients PBMC (1×10^6) were co-cultured for 24 hours, either with or without addition of a pan-caspase inhibibtor, Z-VAD-FMK (50 μM).
Supernatant was collected and PGE2 levels were measured by ELISA.

On to `Cn1cc(C[C@@H](N)C(=O)O)c2ccccc21` [1-DMT, 1-methyl-D-tryptophan], for which the “beneficial effect of MSC on Mh T cell infiltration” value in experiment [1] is on record as “much reduced”.
Turning to `COC(=O)C[C@H](NC(=O)[C@H](C)NC(=O)[C@@H](NC(=O)OCc1ccccc1)C(C)C)C(=O)CF` [Z-VAD-FMK] (Cbz-Val-Ala-Asp(OMe)-CH2F), the “caspase activation in MSC induced by activated PBMC in presence of inhibitor” value with caspase 3 was “completely abrogated”. For the same compound, the “PGE2 levels in supernatant” value in the experiment on PGE2 is listed as “largely reduce”.
